In patent US7604982B2, “High-throughput screening method for intergrin antagonist and new peptide screened therefrom” (Proteogen Inc., priority 2003, dated 2009):
Residues, ends and D or L forms follow the SMILES beside them.

Legend:
human malignant melanoma = conditions: cited from earlier work
[1] = molecular target: T1, integrin αvβ3-vitronectin interaction (Homo sapiens, UniProt P05106+P06756); assay: Competitive inhibition of integrin αvβ3-vitronectin interaction on integrin microarray (ProteoChip); format: binding; conditions: for inhibition of integrin αvβ3-vitronectin interaction (relative fluorescence intensity): vitronectin 100 ng/ml labeled with Cy-3, colour scale white highest, blue lowest; for IC50: half-maximal inhibition concentration relative to control without peptides, ND means no activity was detected
T1 construct: purchased Chemicon International, Inc. (CA, USA)
Source text: ProteoChip™ (Proteogen, Inc., Seoul, South Korea) was used as a protein chip and integrins were spotted on the ProteoChip™ (Proteogen, Inc., Seoul, South Korea) with the microarrayer (CM-1000; Proteogen, Inc., Seoul, South Korea) to fabricate integrin receptor microarray (See Lee, Y. S. et al.: ProteoChip: a highly sensitive protein microarray proposed by a novel method of protein immobilization for application of protein-protein interaction studies, Proteomics 2003; 3: 2289-2304). Integrin α11bβ3 was purified to homogeneity by GRGDSPK-Sepharose column chromatography from the platelet (See Kang I. C. and Kim D. S., Analysis of potent glycoprotein IIb-IIIa antagonist from natural sources. J Biochem Mol Biol 1998; 31: 515-518), and Integrin αvβ3 was commercially obtained from Chemicon International, Inc. (CA, USA).
Integrins (40 μg/mL) diluted with a phosphate-buffered saline (PBS) solution containing 10 mM β-octylthioglucopyranoside, 1.0 mM CaCl2, 11.0 mM MgCl2, and 30% glycerol were spotted and incubated at 37° C. for 3 hours, and then the remaining integrins after binding were washed with 0.5% PBST (PBS containing 0.5% Tween-20). The prepared integrin microarray was stored at 4° C. until before use. This integrin microarray (integrin-binding protein chip) was used for high-throughput screening of integrin receptor antagonist (See FIG. 1).
Mixtures of ligand protein (vitronectin 100 ng/ml) labeled with fluorescence (Cy-3) and known integrin antagonists such as disintegrins (echistatin 250 μg/ml, flavoridin 250 μg/ml, kistrin 250 μg/ml, and salmosin 2.6 ng/ml), a monoclonal antibody (mAb) against integrin 11.0 mg/ml, and various concentrations of synthetic RGD peptides (echistatin, flavoridin, kistrin: Sigma-Aldrich, USA; Salmosin: isolated and purified from recombinant E. Coli; monoclonal antibody against integrin: Chemicon International, Inc., USA; synthetic ROD peptides: synthesized in the Korea Research Institute of Bioscience and Biotechnology, South Korea) were dropped on the integrin receptor of the integrin αvβ3-binding protein chip prepared in Example 1 by using micropipette or microarrayer (CM-1000; Proteogen, Inc., Seoul, South Korea) and then were reacted in a oven of 37° C. and over 75% humidity for 4-12 hours. After reaction, those were washed for about 10 minutes with 0.5% PBST containing 3% BSA. Competitive inhibitory abilities of antagonists were measured by analyzing the degree of ligand binding as relative fluorescence intensity with a fluorescence scanner.
Antagonists used in FIG. 4 are already known as antagonistic material of integrin αvβ3-vitronectin. This is also a result analyzing whether mixing antagonists and vitronectin labeled with fluorescence inhibit or not the interaction between integrin αvβ3 and vitronectin. Control are the group having only vitronectin labeled with fluorescence without antagonists and the other groups are the results performed with antagonists and peptides including the amino acid sequence of RGE. The fluorescence intensity in FIG. 4 is expressed as rainbow colors like the explanation of FIG. 3. […] However, in case of groups having antagonists, antagonists inhibited the interaction between integrin αvβ3 and vitronectin, that is, integrin αvβ3 didn't bind to vitronectin, which made the color of fluorescence blue, the lowest color.
Mixtures of ligand protein (Fibrinogen 100 ng/ml and vitronectin 100 ng/ml) labeled with fluorescence (Cy-3) and 114 peptide pools from peptide library were dropped on the integrin receptor of integrin αvβ3-binding protein chip prepared in Example 1 by using micropipette or microarrayer (CM-1000; Proteogen, Inc., Seoul, South Korea) and then were reacted in oven of 37° C. and over 75% humidity for 4-12 hours. After reaction, those were washed for about 10 minutes with 0.5% PBST containing 3% BSA. […]

[2] = system: human umverical vein endothelial cell (HUVEC); assay: HUVEC migration assay (Boyden chamber, bFGF chemoattractant); format: cell-based; conditions: bFGF-induced, 4 hours at 37° C., FIG. 9
Method: HUVE cell was cultured in M199 medium containing 10% fetal calf serum and 3 ng/ml bFGF. This cell was cultured in the control medium (M199 containing 0.1% BSA) for 16 hours to be used in migration assay, and then 3×10^4 cells were added to upper chamber of porous membrane coated with gelatin (40 μM) and inserted in Boyden chamber. Samples were treated at the same time in a concentration-dependent manner. Chemoattractant, bFGF, was added in the bottom chamber to induce HUVE cell to migrate into lower chamber. The chamber was incubated for 4 hours at 37° C. and then the membrane was removed. After fixation, cell was stained with crystal violet and cells migrating across the membrane were counted with a microscope.

[3] = system: angiogenesis in chick chorioallantoic membrane; assay: Inhibition assay of angiogenesis in a chick chorioallantoic membrane; format: in vivo; conditions: in the presence of bFGF, FIG. 10
Method: FIG. 10 is the result of analyzing effects of antagonistic peptides of integrin αvβ3 on angiogenesis in a chick chorioallantoic membrane. In vivo angiogenesis inhibition test was performed as one of biological characterization researches of the antagonistic peptides. A, positive control, is the result of the group treated with only bFGF without peptide; B, negative control, is the result of the group having only cells without bFGF; C is the result of the group treated with GRGDSP peptide in the presence of bFGF; D is the result of the group treated with HGDVHK peptide in the presence of bFGF; E is the result of the group treated with HSDVHK peptide in the presence of bFGF; and F is the result of the group treated with HHDVHK peptide in the presence of bFGF.
Fertilized eggs was purchased from Pulmuone Corp. (South Korea), Thermanox coverslips for sample loading was purchased from Nunc Company (USA), and 10% Intralipose (fat emulsion) for observation and syringes were purchased from Green Cross Company (South Korea).
On day 1 (0-day embryo): Fertilized egg was incubated in a incubator of 37-38° C. and over 90% humidity. The temperature and humidity were often checked to make sure the above conditions.
On day 3 (2-day embryo): The peaked end of fertilized egg was cracked with a knife. […] The pore was sealed with transparent tape to block infection and dryness of the fertilized egg. The egg was incubated again with the direction of pore toward the bottom.
On day 4 (3-day embryo): The window which diameter is 2-3 cm was made in the direction of air sac of fertilized egg (in the opposite direction of the above syringe pore) and the eggs confirmed as fertilized egg were sealed with broad transparent tape and incubated again. For reference, round window was made as follows. A round shape of scratch was made on the eggshell with a sharp knife and eggshell then was taken away with a pincette.
On day 5 (4.5-day embryo): CAM is usually created at this time and the diameter is about 2-5 mm. […]

[4] = system: Lewis lung carcinomas cells; assay: Growth inhibition assay of subcutaneous solid tumor; format: in vivo, C57BL/6 mice; conditions: 100 mg/kg mouse, subcutaneous injection once daily, FIGS. 11-13
Method: Lewis lung carcinomas cells (1×10^6) were injected subcutaneously into dorsal midline of C57BL/6 mice. When tumors were 100-200 mm^3 in volume, the mice were randomized into three groups. Two groups received HGDVHK or HSDVHK (100 mg/kg mouse), respectively, in PBS via subcutaneous injection at a site distant from the tumor once daily. […] The sizes of the tumors in all groups were measured at the same time everyday. The experiments were terminated when the control mice began to die.

[5] = system: blood endothelial alpha(5) and alpha(v)-integrin; conditions: endothelial cell migration; cited from earlier work

Molecule	inhibition of integrin αvβ3-vitronectin interaction (relative fluorescence intensity) [1]	inhibition of HUVEC migration [2]	inhibitory effect on CAM angiogenesis [3]	IC50 [1] [nM]	further results
CC(C)[C@H]1C(=O)N[C@@H](CCCN=C(N)N)C(=O)NCC(=O)N[C@@H](CC(=O)O)C(=O)N[C@H](Cc2ccccc2)C(=O)N1C [EMD121974]	–	–	–	–	angiogenesis inhibition and cancer growth suppression in animal test (human malignant melanoma): activity inhibiting angiogenesis and thus suppressing cancer growth
HHDVHK [HHDVHK-NH2]	didn't reveal any inhibitory activity	had little effect	had little effect	–	–
CC(C)C[C@H](NC(=O)[C@H](CC(C)C)NC(=O)[C@H](Cc1c[nH]cn1)NC(=O)[C@@H](N)Cc1c[nH]cn1)C(=O)N[C@@H](Cc1c[nH]cn1)C(=O)N[C@@H](CCCCN)C(N)=O [HHLLHK-NH2] (H-HHLLHK-NH2; N-terminus assumed)	–	–	–	0.00434	–
CC(C)C[C@H](NC(=O)[C@H](CC(=O)O)NC(=O)CNC(=O)[C@@H](N)Cc1c[nH]cn1)C(=O)N[C@@H](Cc1c[nH]cn1)C(=O)N[C@@H](CCCCN)C(N)=O [HGDLHK-NH2] (H-HGDLHK-NH2; N-terminus assumed)	–	–	–	0.0436	–
CC(C)C[C@H](NC(=O)CNC(=O)[C@@H](N)Cc1c[nH]cn1)C(=O)N[C@H](C(=O)N[C@@H](Cc1c[nH]cn1)C(=O)N[C@@H](CCCCN)C(N)=O)C(C)C [HGLVHK-NH2] (H-HGLVHK-NH2; N-terminus assumed)	–	–	–	0.00353	–
CC(C)[C@H](NC(=O)[C@H](CC(=O)O)NC(=O)[C@H](CO)NC(=O)[C@@H](N)Cc1c[nH]cn1)C(=O)N[C@@H](Cc1c[nH]cn1)C(=O)N[C@@H](CCCCN)C(N)=O [HSDVHK-NH2] (H-HSDVHK-NH2; N-terminus assumed)	stronger inhibitory activity in integrin αvβ3-specific inhibitory test than GRGDSP	significantly inhibited	showed different inhibitory effects	0.00241	growth of solid tumor [4]: largely suppressed
CC(C)C[C@H](NC(=O)[C@H](CO)NC(=O)[C@@H](N)Cc1c[nH]cn1)C(=O)N[C@H](C(=O)N[C@@H](Cc1c[nH]cn1)C(=O)N[C@@H](CCCCN)C(N)=O)C(C)C [HSLVHK-NH2] (H-HSLVHK-NH2; N-terminus assumed)	–	–	–	0.064	–
CC(C)[C@H](NC(=O)[C@H](CC(=O)O)NC(=O)CNC(=O)[C@@H](N)Cc1c[nH]cn1)C(=O)N[C@@H](Cc1c[nH]cn1)C(=O)N[C@@H](CCCCN)C(N)=O [HGDVHK-NH2] (H-HGDVHK-NH2; N-terminus assumed)	stronger inhibitory activity in integrin αvβ3-specific inhibitory test than GRGDSP	significantly inhibited	showed different inhibitory effects	0.0647	–
CC(C)C[C@H](NC(=O)[C@H](Cc1c[nH]cn1)NC(=O)[C@@H](N)Cc1c[nH]cn1)C(=O)N[C@H](C(=O)N[C@@H](Cc1c[nH]cn1)C(=O)N[C@@H](CCCCN)C(N)=O)C(C)C [HHLVHK-NH2] (H-HHLVHK-NH2; N-terminus assumed)	–	–	–	0.407	–
recombinant human endostatin: recombinant human endostatin interacting with endothelial alpha(5) and alpha(v)-integrin (protein, UniProt P39060 1572-1754, looked up, Endostatin) Endostatin: HSHRDFQPVLHLVALNSPLSGGMRGIRGADFQCFQQARAVGLAGTFRAFLSSRLQDLYSIVRRADRAAVPIVNLKDELLFPSWEALFSGSEGPLKPGARIFSFDGKDVLRHPTWPQKSVWHGSDPNGRRLTESYCETWRTEAPSATGQASSLLGGRLLGQSAASCHHAYIVLCIENSFMTASK	–	–	–	–	inhibition of integrin-dependent endothelial function [5]: inhibit integrin-dependent endothelial function such as endothelial cell migration
